Laboratory results published in patent US20080103191A1, “ENTACAPONE-DERIVATIVES” (priority 2006, published 2008).
Values after ≈ are worked out from the molar mass of the structure shown. Read-outs that look alike come from different tables or passages of the source.

How the values were obtained:
Plasma stability ex vivo = type: in vitro ADME; details: human plasma, 37° C., read-out: t1/2 plasma
Procedure: Plasma stability is determined in human and rat plasma ex vivo. For the determination of the plasma stability of the compounds of formula I, the test compounds were incubated with human plasma (c=5 μg/mL) at 37° C. for certain time intervals up to 60, resp. 120 min (depending on the compound). Afterwards the incubations were stopped by equivalent addition of acetonitrile for protein precipitation, and the samples were mixed and centrifuged. The supernatants were adequately diluted and analyzed by HPLC with UV detection at 305 nm.
The degradation of the compounds of formula I as well as the formation of the active drug entacapone were monitored, and the half-life times of the compounds of formula I were calculated from the obtained peak areas.

[1] = Stability of TPGS/PG formulations in simulated gastric fluid (precipitate formation); type: physicochemical; details: for Precipitate formation, directly after addition: 1.0 mL TPGS/PG solution added to 10 mL SGF, visual inspection; for Precipitate formation, 24 h: TPGS/PG solution in SGF
Procedure: Simulated gastric fluid (SGF) is prepared as follows. 200 mg NaCl are dissolved in 70 mL H2O. 0.7 mL concentrated HCl is added. Subsequently, 320 mg of pepsin powder is added, and the mixture is filled up to 100 mL with H2O. A clear solution is obtained (pH 1-2).
2 mL TPGS/PG is added to 5-6 mg of the respective compound of formula I, and the obtained solutions are shaken for 5 h. […] 1.0 mL of the centrifuged solution is added drop-wise to 10 mL SGF. Precipitate formation is determined by visual inspection of each solution immediately after addition of the solution comprising the respective compound of formula I in TPGS/PG to SGF and after 24 hours.

[2] = Chemical hydrolysis stability at pH 1 and pH 7.4 (HPLC); type: physicochemical; details: 37° C., over 12 h
Procedure, shortened: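 Compound dissolved in 0.1 N HCl or PBS and held at 37° C over 12 h, sampling at set intervals for remaining prodrug by reversed-phase C8 HPLC with 220 nm detection. Peak areas expressed relative to first injection, ln-plotted against time; t1/2 [h] derived assuming first-order kinetics.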

[3] = Solubility in 0.1 N HCl, PBS buffer, FaSSIF and FeSSIF; type: physicochemical; details: thermodynamic from solid
Procedure, shortened: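 Excess compound was shaken for 10 min at ambient temperature in 0.1 N HCl (pH 1), PBS (pH 7.4), FaSSIF (pH 6.5) or FeSSIF (pH 5.0). After centrifugation, the dissolved concentration was measured by reversed-phase HPLC with UV detection at 220 nm.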

[4] = pH 1, 0.1 N HCl, read-out: t1/2 at pH 1 (converted)
[5] = pH 7.4, PBS buffer, read-out: t1/2 at pH 7.4 (converted)
[6] = FaSSIF, pH 6.5, fassif, Table 11, read-out: Solubility FaSSIF pH 6.5
[7] = FaSSIF, pH 6.5, fassif, fasting state fluid, ambient temperature, read-out: Solubility FaSSIF Ph 6.5
[8] = FeSSIF, pH 5, fessif, Table 11, read-out: Solubility FeSSIF pH 5.0
[9] = FeSSIF, pH 5, fessif, fed state fluid, ambient temperature, read-out: Solubility FeSSIF Ph 5.0
[10] = PBS buffer, pH 7.4, aqueous buffer, Table 11, read-out: Solubility PBS pH 7.4
[11] = PBS buffer, pH 7.4, aqueous buffer, ambient temperature, read-out: Solubility PBS Ph 7.4

Row | Structure (SMILES) | half-life at 5 μg/mL (Plasma stability ex vivo) [h] | Precipitate formation, directly after addition [1] | Precipitate formation, 24 h [1] | half-life [2, 4] [h] | half-life [2, 5] [h] | solubility at 10 min [3, 6] [µg/mL] | solubility at 10 min [3, 7] [µg/mL] | solubility at 10 min [3, 8] [µg/mL] | solubility at 10 min [3, 9] [µg/mL] | solubility at 10 min [3, 10] [µg/mL] | solubility at 10 min [3, 11] [µg/mL] | solubility at 10 min ([3]; 0.1 N HCl, pH 1, simulated gastric fluid, Table 11, maximum solubility, read-out: Solubility 0.1N HCl pH 1.0) [µg/mL] | solubility at 10 min ([3]; 0.1 N HCl, pH 1, simulated gastric fluid, ambient temperature, shaken 10 min, read-out: Solubility 0.1N HCl Ph 1.0) [µg/mL]
1 | CCN(CC)C(=O)/C(C#N)=C/c1cc(OC(=O)OCC2CCCCC2)c(O)c([N+](=O)[O-])c1 [Compound 57, Carbonic acid 5-((E)-2-cyano-2-diethylcarbamoyl-vinyl)-2-hydroxy-3-nitro-phenyl ester cyclohexylmethyl ester] | 0.302 | clear | clear | 16.5 | 7.7 | 140 (≈ 314 µM) | 140 (≈ 314 µM) | 30 (≈ 67.3 µM) | 30 (≈ 67.3 µM) | 260 (≈ 584 µM) | 260 (≈ 584 µM) | – | –
2 | CCCCCCCCOC(=O)Oc1cc(/C=C(\C#N)C(=O)N(CC)CC)cc([N+](=O)[O-])c1O [Compound 35, Carbonic acid 5-((E)-2-cyano-2-diethylcarbamoyl-vinyl)-2-hydroxy-3-nitro-phenyl ester octyl ester] | 2 | clear | clear | 14.4 | 6.8 | 150 (≈ 325 µM) | 150 (≈ 325 µM) | 150 (≈ 325 µM) | 150 (≈ 325 µM) | 130 (≈ 282 µM) | 130 (≈ 282 µM) | – | –
3 | CCCC(C)OC(=O)Oc1cc(/C=C(\C#N)C(=O)N(CC)CC)cc([N+](=O)[O-])c1O (stereo not drawn) [Compound 63, Carbonic acid 5-((E)-2-cyano-2-diethylcarbamoyl-vinyl)-2-hydroxy-3-nitro-phenyl ester 1-methyl-butyl ester] | – | clear | clear | 28.9 | 28.9 | 750 (≈ 1790 µM) | 750 (≈ 1790 µM) | 170 (≈ 405 µM) | 170 (≈ 405 µM) | 1230 (≈ 2930 µM) | 1230 (≈ 2930 µM) | 20 (≈ 47.7 µM) | 20 (≈ 47.7 µM)
4 | CCCCC(CC)COC(=O)Oc1cc(/C=C(\C#N)C(=O)N(CC)CC)cc([N+](=O)[O-])c1O (stereo not drawn) [Compound 15, Carbonic acid 5-((E)-2-cyano-2-diethylcarbamoyl-vinyl)-2-hydroxy-3-nitro-phenyl ester 2-ethyl-hexyl ester] | 1.48 | clear | clear | 15.6 | 7.2 | 180 (≈ 390 µM) | 180 (≈ 390 µM) | 190 (≈ 412 µM) | 190 (≈ 412 µM) | 150 (≈ 325 µM) | 150 (≈ 325 µM) | – | –
